The text below walks through data of ChEMBL document CHEMBL4007421, “Discovery and Preclinical Characterization of 3-((4-(4-Chlorophenyl)-7-fluoroquinoline-3-yl)sulfonyl)benzonitrile, a Novel Non-acetylenic Metabotropic Glutamate Receptor 5 (mGluR5) Negative Allosteric Modulator for Psychiatric Indications” (J Med Chem, 2017).

Structures are written as SMILES.

The test system of the data set is Liver. In words: Intrinsic clearance in human liver microsomes at 2.5 uM assessed per gram of liver. It counts as ADME, microsome.
`COc1cccc(-c2c(S(=O)(=O)c3ccc(F)c(F)c3)cnc3cc(F)ccc23)c1` came in with a CLint of 1.77 mL/min/g.

For `COc1ccc(S(=O)(=O)c2cnc3c(F)cccc3c2-c2cccc(Cl)c2)cc1`, the CLint was 2.75 mL/min/g.

`N#Cc1cccc(S(=O)(=O)c2cnc3cc(F)ccc3c2-c2cccc(F)c2)c1` registered a CLint of 0.78 mL/min/g.

As to `COc1cccc(S(=O)(=O)c2cnc3cc(F)ccc3c2-c2cccc(Cl)c2)c1`, the CLint was found to be 2.97 mL/min/g.

Regarding `COc1ccc(S(=O)(=O)c2cnc3cc(F)ccc3c2-c2cccc(Cl)c2)cc1Cl`, the CLint was found to be 1.19 mL/min/g.

In turn, `COc1ccc(-c2c(S(=O)(=O)c3ccc(OC)cc3)cnc3c(F)cccc23)cc1` came in with a CLint of 2.12 mL/min/g.

In the case of `N#Cc1cccc(S(=O)(=O)c2cnc3cc(F)ccc3c2-c2cccc(Cl)c2)c1`, the CLint came to 0.99 mL/min/g.

As to `COc1ccc(-c2c(S(=O)(=O)c3ccc(F)c(Cl)c3)cnc3cc(F)ccc23)cc1`, the CLint was found to be 1.08 mL/min/g.

In the case of `COc1cccc(-c2c(S(=O)(=O)c3ccc(OC)c(Cl)c3)cnc3cc(F)ccc23)c1`, the CLint amounted to 1.71 mL/min/g.

In the case of `COc1ccc(-c2c(S(=O)(=O)c3ccc(F)cc3)cnc3cc(F)ccc23)cc1`, the CLint came out at 1.77 mL/min/g.

As for `O=S(=O)(c1cc(F)cc(F)c1)c1cnc2cc(F)ccc2c1-c1cccc(Cl)c1`, the CLint is 0.22 mL/min/g.

`O=S(=O)(c1cccc(F)c1)c1cnc2c(F)cccc2c1-c1ccc(Cl)cc1` came in with a CLint of 0.62 mL/min/g.

As for `O=S(=O)(c1ccc(F)c(Cl)c1)c1cnc2c(F)cccc2c1-c1ccc(F)cc1`, the CLint came out at 0.19 mL/min/g.

In turn, `COc1ccc(-c2c(S(=O)(=O)c3cc(Cl)cc(Cl)c3)cnc3cc(F)ccc23)cc1` gave a CLint of 1 mL/min/g.

With `Cc1ccc(S(=O)(=O)c2cnc3cc(F)ccc3c2-c2ccc(F)cc2)cc1F`, the CLint was determined as 2.33 mL/min/g.

In the case of `Cc1ccc(S(=O)(=O)c2cnc3cc(F)ccc3c2-c2cccc(F)c2)cc1C`, the CLint turned out to be 3.71 mL/min/g.

Turning to `Cc1ccc(S(=O)(=O)c2cnc3cc(F)ccc3c2-c2ccc(Cl)cc2)cc1C`, the CLint turned out to be 7.88 mL/min/g.

`O=S(=O)(c1ccc(F)c(Cl)c1)c1cnc2c(F)cccc2c1-c1cccc(F)c1` registered a CLint of 1.23 mL/min/g.

Regarding `O=S(=O)(c1ccc(F)c(Cl)c1)c1cnc2c(F)cccc2c1-c1ccccc1F`, the CLint worked out at 1.39 mL/min/g.

`O=S(=O)(c1cccc(F)c1)c1cnc2cc(F)ccc2c1-c1cccc(F)c1`: the CLint was 0.24 mL/min/g.

For `COc1ccc(S(=O)(=O)c2cnc3cc(F)ccc3c2-c2ccc(F)cc2)cc1Cl`, the CLint is 1.29 mL/min/g.

Take `COc1cccc(-c2c(S(=O)(=O)c3ccc(C)c(C)c3)cnc3cc(F)ccc23)c1`: the CLint amounted to 8.78 mL/min/g.

`Cc1ccc(S(=O)(=O)c2cnc3cc(F)ccc3c2-c2cccc(F)c2)cc1F` came in with a CLint of 0.41 mL/min/g.

Compound `COc1ccc(S(=O)(=O)c2cnc3c(F)cccc3c2-c2cccc(F)c2)cc1` showed a CLint of 3.03 mL/min/g.

Turning to `COc1ccc(S(=O)(=O)c2cnc3c(F)cccc3c2-c2ccc(Cl)cc2)cc1`, the CLint is 1.05 mL/min/g.

As to `O=S(=O)(c1cc(F)cc(F)c1)c1cnc2c(F)cccc2c1-c1ccc(Cl)cc1`, the CLint came to 0.73 mL/min/g.

As to `N#Cc1cccc(S(=O)(=O)c2cnc3cc(F)ccc3c2-c2ccccc2F)c1`, the CLint worked out at 1.39 mL/min/g.

The compound `O=S(=O)(c1cc(F)cc(F)c1)c1cnc2c(F)cccc2c1-c1cccc(Cl)c1` returned a CLint of 0.64 mL/min/g.

In the case of `O=S(=O)(c1cc(Cl)cc(Cl)c1)c1cnc2c(F)cccc2c1-c1ccccc1F`, the CLint worked out at 0.44 mL/min/g.

Consider `COc1cccc(-c2c(S(=O)(=O)c3cccc(F)c3)cnc3c(F)cccc23)c1`, for which the CLint was 2.6 mL/min/g.

As to `O=S(=O)(c1cc(F)cc(F)c1)c1cnc2cc(F)ccc2c1-c1ccc(Cl)cc1`, the CLint stood at 0.03 mL/min/g.

`Cc1ccc(S(=O)(=O)c2cnc3cc(F)ccc3c2-c2cccc(Cl)c2)cc1F` yielded a CLint of 2.13 mL/min/g.

`O=S(=O)(c1ccc(F)c(Cl)c1)c1cnc2cc(F)ccc2c1-c1cccc(F)c1` had a CLint of 0.25 mL/min/g.

`Cc1ccc(S(=O)(=O)c2cnc3c(F)cccc3c2-c2cccc(Cl)c2)cc1F` returned a CLint of 3.18 mL/min/g.

In the case of `COc1cccc(-c2c(S(=O)(=O)c3cc(F)cc(F)c3)cnc3cc(F)ccc23)c1`, the CLint came to 1.81 mL/min/g.

With `COc1ccc(S(=O)(=O)c2cnc3cc(F)ccc3c2-c2ccc(F)cc2)cc1`, the CLint came to 1.71 mL/min/g.

`O=S(=O)(c1ccc(F)c(F)c1)c1cnc2c(F)cccc2c1-c1cccc(F)c1`: the CLint was 1.28 mL/min/g.

As for `Cc1ccc(S(=O)(=O)c2cnc3c(F)cccc3c2-c2cccc(F)c2)cc1F`, the CLint stood at 3.92 mL/min/g.

In the case of `O=S(=O)(c1cc(Cl)cc(Cl)c1)c1cnc2c(F)cccc2c1-c1ccc(Cl)cc1`, the CLint came out at 0.78 mL/min/g.

For `COc1ccc(-c2c(S(=O)(=O)c3ccc(OC)cc3)cnc3cc(F)ccc23)cc1`, the CLint is 1.18 mL/min/g.

As for `O=S(=O)(c1ccc(F)c(Cl)c1)c1cnc2c(F)cccc2c1-c1cccc(Cl)c1`, the CLint amounted to 0.18 mL/min/g.

Turning to `O=S(=O)(c1ccc(F)cc1)c1cnc2cc(F)ccc2c1-c1cccc(F)c1`, the CLint stood at 0.95 mL/min/g.

The compound `Cc1ccc(S(=O)(=O)c2cnc3c(F)cccc3c2-c2ccc(Cl)cc2)cc1F` came in with a CLint of 2.2 mL/min/g.

As to `COc1ccc(-c2c(S(=O)(=O)c3ccc(F)c(F)c3)cnc3cc(F)ccc23)cc1`, the CLint was determined as 1.1 mL/min/g.

Consider `COc1ccc(-c2c(S(=O)(=O)c3ccc(C)c(F)c3)cnc3c(F)cccc23)cc1`, for which the CLint was determined as 3.27 mL/min/g.

In the case of `COc1cccc(-c2c(S(=O)(=O)c3cc(F)cc(F)c3)cnc3c(F)cccc23)c1`, the CLint was found to be 2.76 mL/min/g.

Compound `O=S(=O)(c1ccc(F)c(F)c1)c1cnc2cc(F)ccc2c1-c1cccc(F)c1` yielded a CLint of 0.6 mL/min/g.

`O=S(=O)(c1ccc(F)c(F)c1)c1cnc2c(F)cccc2c1-c1cccc(Cl)c1` gave a CLint of 1.13 mL/min/g.

Consider `COc1ccc(-c2c(S(=O)(=O)c3cc(F)cc(F)c3)cnc3c(F)cccc23)cc1`, for which the CLint stood at 2.59 mL/min/g.

As to `COc1ccc(S(=O)(=O)c2cnc3cc(F)ccc3c2-c2ccc(Cl)cc2)cc1`, the CLint amounted to 1.28 mL/min/g.

In turn, `O=S(=O)(c1cc(F)cc(F)c1)c1cnc2c(F)cccc2c1-c1cccc(F)c1` gave a CLint of 1.18 mL/min/g.

For `Cc1ccc(S(=O)(=O)c2cnc3cc(F)ccc3c2-c2cccc(Cl)c2)cc1C`, the CLint is 4.01 mL/min/g.

`COc1ccc(S(=O)(=O)c2cnc3cc(F)ccc3c2-c2cccc(F)c2)cc1Cl` showed a CLint of 2.08 mL/min/g.

In the case of `Cc1ccc(S(=O)(=O)c2cnc3c(F)cccc3c2-c2ccc(F)cc2)cc1F`, the CLint came to 2.75 mL/min/g.

Consider `COc1ccc(-c2c(S(=O)(=O)c3ccc(F)cc3)cnc3c(F)cccc23)cc1`, for which the CLint turned out to be 2.41 mL/min/g.

In turn, `O=S(=O)(c1ccc(F)cc1)c1cnc2c(F)cccc2c1-c1cccc(Cl)c1` returned a CLint of 1.21 mL/min/g.

`O=S(=O)(c1cc(Cl)cc(Cl)c1)c1cnc2cc(F)ccc2c1-c1ccccc1F` came in with a CLint of 0.93 mL/min/g.

In the case of `COc1ccc(S(=O)(=O)c2cnc3c(F)cccc3c2-c2cccc(OC)c2)cc1`, the CLint was determined as 2.87 mL/min/g.

Take `O=S(=O)(c1ccc(F)c(F)c1)c1cnc2cc(F)ccc2c1-c1cccc(Cl)c1`: the CLint came out at 0.38 mL/min/g.

`O=S(=O)(c1cccc(F)c1)c1cnc2cc(F)ccc2c1-c1ccc(Cl)cc1` yielded a CLint of 0.98 mL/min/g.

As to `COc1cccc(-c2c(S(=O)(=O)c3ccc(C)c(F)c3)cnc3c(F)cccc23)c1`, the CLint turned out to be 4.02 mL/min/g.

Turning to `N#Cc1cccc(S(=O)(=O)c2cnc3c(F)cccc3c2-c2ccccc2F)c1`, the CLint was determined as 0.66 mL/min/g.

`O=S(=O)(c1ccc(F)c(F)c1)c1cnc2cc(F)ccc2c1-c1ccccc1F` showed a CLint of 0.79 mL/min/g.

Take `O=S(=O)(c1ccc(F)c(Cl)c1)c1cnc2cc(F)ccc2c1-c1cccc(Cl)c1`: the CLint was determined as 0.66 mL/min/g.

In turn, `O=S(=O)(c1cccc(F)c1)c1cnc2cc(F)ccc2c1-c1ccc(F)cc1` registered a CLint of 0.11 mL/min/g.

Take `COc1cccc(-c2c(S(=O)(=O)c3cc(Cl)cc(Cl)c3)cnc3cc(F)ccc23)c1`: the CLint stood at 1.51 mL/min/g.

Compound `COc1cccc(-c2c(S(=O)(=O)c3cccc(C#N)c3)cnc3cc(F)ccc23)c1` showed a CLint of 1.83 mL/min/g.

`N#Cc1cccc(S(=O)(=O)c2cnc3c(F)cccc3c2-c2cccc(F)c2)c1` registered a CLint of 0.34 mL/min/g.

The compound `O=S(=O)(c1ccc(F)cc1)c1cnc2cc(F)ccc2c1-c1ccc(F)cc1` showed a CLint of 1.34 mL/min/g.

For `O=S(=O)(c1cc(F)cc(F)c1)c1cnc2c(F)cccc2c1-c1ccccc1F`, the CLint was 0.09 mL/min/g.

Regarding `COc1ccc(S(=O)(=O)c2cnc3cc(F)ccc3c2-c2cccc(F)c2)cc1`, the CLint came out at 2.94 mL/min/g.

Compound `COc1cccc(-c2c(S(=O)(=O)c3cc(Cl)cc(Cl)c3)cnc3c(F)cccc23)c1` gave a CLint of 2.31 mL/min/g.

Compound `COc1ccc(-c2c(S(=O)(=O)c3cccc(F)c3)cnc3c(F)cccc23)cc1` came in with a CLint of 2.48 mL/min/g.

Consider `N#Cc1cccc(S(=O)(=O)c2cnc3c(F)cccc3c2-c2ccc(F)cc2)c1`, for which the CLint was 0.19 mL/min/g.

As to `COc1ccc(-c2c(S(=O)(=O)c3ccc(F)c(F)c3)cnc3c(F)cccc23)cc1`, the CLint turned out to be 2.12 mL/min/g.

In the case of `COc1cccc(-c2c(S(=O)(=O)c3ccc(F)cc3)cnc3c(F)cccc23)c1`, the CLint is 2.23 mL/min/g.

With `O=S(=O)(c1cc(Cl)cc(Cl)c1)c1cnc2c(F)cccc2c1-c1cccc(Cl)c1`, the CLint came to 1.2 mL/min/g.

Compound `O=S(=O)(c1ccc(F)c(Cl)c1)c1cnc2c(F)cccc2c1-c1ccc(Cl)cc1` returned a CLint of 0.01 mL/min/g.

Compound `COc1ccc(-c2c(S(=O)(=O)c3ccc(C)c(C)c3)cnc3cc(F)ccc23)cc1` had a CLint of 4.13 mL/min/g.

For the compound `O=S(=O)(c1cc(Cl)cc(Cl)c1)c1cnc2cc(F)ccc2c1-c1cccc(Cl)c1`, the CLint came to 0.93 mL/min/g.

Compound `O=S(=O)(c1cccc(F)c1)c1cnc2c(F)cccc2c1-c1cccc(F)c1` had a CLint of 1.14 mL/min/g.

`O=S(=O)(c1ccc(F)c(F)c1)c1cnc2c(F)cccc2c1-c1ccc(F)cc1` showed a CLint of 0.78 mL/min/g.

`N#Cc1cccc(S(=O)(=O)c2cnc3c(F)cccc3c2-c2cccc(Cl)c2)c1` displayed a CLint of 1.11 mL/min/g.

For `COc1ccc(-c2c(S(=O)(=O)c3cc(Cl)cc(Cl)c3)cnc3c(F)cccc23)cc1`, the CLint came to 2.11 mL/min/g.

As for `O=S(=O)(c1cccc(F)c1)c1cnc2c(F)cccc2c1-c1ccccc1F`, the CLint amounted to 0.21 mL/min/g.

`COc1ccc(-c2c(S(=O)(=O)c3cccc(C#N)c3)cnc3cc(F)ccc23)cc1`: the CLint stood at 0.92 mL/min/g.

In the case of `Cc1ccc(S(=O)(=O)c2cnc3cc(F)ccc3c2-c2ccc(F)cc2)cc1C`, the CLint came out at 9.25 mL/min/g.

For `O=S(=O)(c1ccc(F)c(Cl)c1)c1cnc2cc(F)ccc2c1-c1ccccc1F`, the CLint is 1.07 mL/min/g.
